Laboratory results as given in US20010012631A1, “Plant clonal lines and plants having elevated secondary metabolite levels” (University of Massachusetts Medical Center, a Massachusetts …, priority 1997, published 2001).
Where two headings read alike, the source gives them in different places.

Assays:
rosemary clonal line R-7 = experiment: RA content of shoot propagules, rosemary clonal line R-7; type: cell-based; conditions: rosemary R-7, A2C 200 μM, 30 to 45 days; ± SD
Procedure: (§1) Samples of Pseudomonas-treated and untreated control shoots from each line were assayed for rosmarinic acid content and proline content. Rosmarinic acid was extracted from 50 mg of fresh shoot tissue using 2 ml of 50% (v/v) methanol and incubating for 1 hour at 55° C. One ml of the methanol extract was diluted 1:18 and the absorbance of the diluted extract was measured at 333 nm in a Genesys spectrophotometer (Spectronic Instruments, Rochester, N.Y.). The concentration of RA in the extract was calculated using an extinction coefficient of ε333=19,000 τmol^−1cm^−1. Values for the concentration of RA for each treatment/clonal line shown in the Tables and Figures of this application are the average of at least 5 separate extracts. Total rosmarinic acid content was expressed as % g/g fresh weight (FW) of tissue.
(§2) Three clonal thyme lines and five rosemary clonal lines were isolated and maintained in culture as described in U.S. application Ser. No. 08/771,241, filed Dec. 20, 1996 and incorporated herein by reference.
(§3) Individual shoot propagules of each clonal line were transferred to half-strength hormone-free MS media supplemented with A2C and cultured for 30 to 45 days. RA content and morphological abnormalities were determined at the end of the culture period as described in Example 1.

[1] = test system: rosemary clonal line R-15; experiment: RA content of shoot propagules, rosemary clonal line R-15; type: cell-based; conditions: 30 to 45 days
Procedure: as §1, §2, §3

[2] = test system: rosemary clonal line R-16; experiment: RA content of shoot propagules, rosemary clonal line R-16; type: cell-based; conditions: 30 to 45 days
Procedure: as §1, §2, §3

[3] = test system: rosemary clonal line R-35; experiment: RA content of shoot propagules, rosemary clonal line R-35; type: cell-based; conditions: 30 to 45 days, ± SD
Procedure: as §1, §2, §3

[4] = test system: Glucose-6-phosphate dehydrogenase (G-6-PDH); type: cell-based, oregano; conditions: A2C 50 μM
Procedure: (§4) These enzymes are involved in synthesis of phenolic secondary metabolites (PAL) and in the pentose phosphate pathway (G-6-PDH).
(§5) One gm fresh weight of leaves were ground to a powder in liquid nitrogen, and homogenized in 0.1 M Tris-HCl buffer (pH 7.4) containing 1 mM phenylmethyl-sulfonyl fluoride (PMSF), 0.1% polyvinylpyrrolidone (PVP, to remove phenolics and polysaccharides) and 1 mM dithiothreitol (DTT). Extracts were centrifuged at 15,000×g for 20 minutes, and supernatants (5 ml) were partially purified through a PD 10 column (Pharmacia, Inc., NJ). Protein was eluted from the column using 5 ml of 0.1 M Tris-HCl, pH 8.5, which is close to the pH optimum of plant glucose-6-phosphate dehydrogenase (pH 8.0-8.2) and PAL (pH 8.8).
Glucose-6-phosphate dehydrogenase activity in the protein extract was measured spectrophotometrically by following the change in absorbance at 340 nm in the presence of saturating amounts of glucose-6-phosphate (2mM) and NADP (5 μM) in 0.1 M Tris-HCl, pH 8.0. One unit of glucose-6-phosphate dehydrogenase was defined as the amount of enzyme causing the reduction of 1 μmol of NADP^+ per minute. Specific activity was expressed as units per milligram of protein.

[5] = test system: phenylalanine ammonia lyase (PAL); type: cell-based, oregano; conditions: A2C 50 μM
Procedure: as §4, §5
Phenylalanine ammonia-lyase (PAL) activity in the protein extract was assayed based on the conversion of L-phenylalanine (6.67 mM) to trans cinnamic acid. The reaction was carried out at 30° C. in borate buffer (33 mM), pH 8.8 with L-phenylalanine as substrate and the change in absorbance at 290 nm was measured. PAL was expressed as nanomoles of trans-cinnamic acid formed per minute per milligram of protein. Protein was determined by the Bradford dye-binding method using bovine serum albumin as a standard.

oregano clonal line 0-4 = experiment: Morphological abnormalities / tolerance of cultured shoots, oregano line 0-4; type: cell-based; conditions: line 0-4 cultured in the presence of 100 μM azetidine-2-carboxylic acid
Procedure: (§6) Pseudomonas tolerance of Pseudomonas-treated shoots was determined by visual observation with a stereomicroscope (Olympus-SZ40, Tokyo, Japan) at a magnification of 34X. Cultured shoots were evaluated for morphological abnormalities, including malformation, necrosis, and chlorophyll deficiency. The response of individual tissue propagules to Pseudomonas contact was similar within each line, i.e., there was little or no variation among tissue propagules within each line.
(§7) Shoot tissue from oregano lines 0-4 and 0-5 was also cultured in the presence of A2C for 30 days. Samples of treated and control shoots were then assayed for RA content on a fresh weight basis and for morphological abnormalities.

oregano clonal line 0-5 = experiment: Morphological abnormalities / tolerance of cultured shoots, oregano line 0-5; type: cell-based; conditions: line 0-5, 200 μM A2C
Procedure: as §6, §7
(§8) Individual shoot tissue propagules of each clonal line were transferred to half strength hormone-free MS medium supplement with A2C. RA content and morphological abnormalities were determined as described in Example 1.

oregano clonal line OM-8 = experiment: Morphological abnormalities / tolerance of cultured shoots, oregano line OM-8; type: cell-based; conditions: line OM-8, 200 μM A2C
Procedure: as §6, §8

thyme clonal line M-3 = experiment: Morphological abnormalities / tolerance of cultured shoots, thyme line M-3; type: cell-based; conditions: thyme line M-3, 200 μM A2C
Procedure: as §6, §3

rosemary clonal line R-1 = experiment: Morphological abnormalities / tolerance of cultured shoots, rosemary line R-1; type: cell-based; conditions: rosemary line R-1, 200 μM A2C
Procedure: as §6, §3

oregano clonal lines [6] = experiment: Selection for A2C tolerance: RA content of about 100 oregano clonal lines; type: cell-based; conditions: small fraction of about 100 oregano lines, 200 μM A2C, 30 days
Procedure: as §1
(§9) About 100 oregano clonal lines are initiated as described in Example 1. Lines are maintained on MS medium containing BAP as described in Example 1. At the end of a subculture cycle, 50 shoot propagules of each clonal line are transferred to half-strength hormone-free MS medium containing 200 μM A2C. Propagules are then cultured for 30 days as described in Example 1, and assayed for RA content as described in Example 1. Total phenolic content is measured as described in U.S. application Ser. No. 08/771,241, filed Dec. 20, 1996, incorporated herein by reference.

oregano clonal lines [7] = experiment: Selection for A2C tolerance: total phenolic content of about 100 oregano clonal lines; type: cell-based; conditions: small fraction of about 100 oregano lines, 200 μM A2C, 30 days
Procedure: Total phenolic content can be measured, for example, using Folin-Ciocalteu reagent essentially as described in Chandler and Dodds, Plant Cell Rep. 2:105-108 (1983) and Shetty, K., Ph.D., Thesis, University of Idaho (1989). The tissue is disrupted in 95% ethanol and centrifuged to remove particulate matter. An aliquot of the ethanol supernatant is mixed with an equal volume of Folin-Ciocalteu reagent, and incubated at 25° C. A 5% sodium carbonate can be added to stabilize color development. Absorbance of the solution is measured at 725 nm is a spectrophotometer. A standard curve is developed using various concentrations of gallic acid in 95% ethanol. Absorbance values are converted to mg total phenolics/g fresh weight (FW) tissue from the standard curve.
as §9

[8] = test system: regenerated plants of oregano clone 0-1 and five tolerant clones; experiment: Field treatment: RA content of leaf tissue of regenerated oregano plants; type: in vivo; conditions: field plants sprayed with solution of A2C about 50 μm, Nonidet P40, EMC about 0.5% w/v; leaf tissue after 7 days; fresh weight and dry weight basis
Procedure: (§10) About 100 regenerated plants of oregano clone 0-1, and the five tolerant clones of Example 7 are removed from a greenhouse, and planted outdoors in a field during the spring, and summer growing season. Plantings are carried out using a randomized block design. Plants are fertilized weekly, but are not irrigated. About 7 days before flower emergence, half of the plants of each line are sprayed with an aqueous solution comprising A2C, Nonidet P40™, and EMC prepared from strain F. A2C is present at about 50 μm, and EMC is present at about 0.5% w/v. Each plant receives about 1 to 2 ml on the upper surface of the leaves. The remaining control plants are treated by spraying an aqueous solution that contains no A2C and no EMC. Spraying is carried out such that there is little or no carryover to adjacent plants.
(§11) After 7 days, leaf tissue from A2C-treated and control plants is harvested, and analyzed for total phenolic content, and RA content as described in Example 7. […] The plant-to-plant variation among A2C-treated plants of each line is about 5% to about 15%.

[9] = test system: regenerated plants of oregano clone 0-1 and five tolerant clones; experiment: Field treatment: total phenolic content of leaf tissue of regenerated oregano plants; type: in vivo; conditions: field plants sprayed with solution of A2C about 50 μm, Nonidet P40, EMC about 0.5% w/v; leaf tissue after 7 days; fresh weight and dry weight basis
Procedure: as §10, §11

What does the source list for `O=C(O)C1CCN1` (centres unmarked) [A2C, azetidine-2-carboxylic acid]?
RA Levels (rosemary clonal line R-7): 7.9 ± 2.0 mg/g FW; RA Levels ([1]; rosemary R-15, A2C 100 μM, ± SD): 9.4 ± 0.6 mg/g FW; RA Levels ([1]; rosemary R-15, A2C 200 μM): inhibited; RA Levels ([2]; rosemary R-16, A2C 100 μM, ± SD): 10.4 ± 1.9 mg/g FW; RA Levels ([2]; rosemary R-16, A2C 200 μM): inhibited; RA Levels ([3]; rosemary R-35, A2C 100 μM): 12.1 ± 1.4 mg/g FW; RA Levels ([3]; rosemary R-35, A2C 200 μM): 10.9 ± 0.9 mg/g FW; G-6-PDH specific activity ([4]; 10 days of culture treatment): 1.47 μmoles NADPH/min/mg protein; G-6-PDH specific activity ([4]; 25 days of culture treatment): 1.23 μmoles NADPH/min/mg protein; PAL specific activity ([5]; 10 days of culture treatment): 2.83 nanomoles cinnamate/min/mg protein; PAL specific activity ([5]; 25 days of culture treatment): 2.64 nanomoles cinnamate/min/mg protein; morphological abnormalities (oregano clonal line 0-4): no morphological abnormalities; survival of line in culture (oregano clonal line 0-5): killed; survival of line in culture (oregano clonal line OM-8): killed; survival of line in culture (thyme clonal line M-3): killed; survival of line in culture (rosemary clonal line R-1): killed; increase in RA content on a fresh weight basis vs tissue cultured in the absence of A2C (oregano clonal lines [6]): at least 2 fold; increase in total phenolic content on a fresh weight basis vs tissue cultured in the absence of A2C (oregano clonal lines [7]): at least 2 fold; RA vs control tissue [8]: at least 2 fold; total phenolics vs control tissue [9]: at least 2 fold
